Test results taken from publication PMC12098374, “Case report: Treatment of severe phorate poisoning” (Frontiers in Toxicology, 2025).

Assays:
[1] = Serum levels of phorate, its metabolites and PAM in the poisoned patient (LC-MS); format: in vivo, human; settings: for concentration at 1 day / concentration at 4 h / concentration at 3 day / concentration at 5 day / concentration at 7 day / concentration at 10 day / concentration at 12 day / concentration at 14 day / concentration at 16 day / concentration at 18 day: human, in vivo; for change of serum level while HP was stopped: seventh-10th day, family rejected HP
Procedure: LC-MS was used to detect atropine,PAM,phorate and its metabolites. Ultra-high-pressure liquid chromatography-tandem mass spectrometry on a Sciex Triple TOFTM 5600+ mass spectrometer was used for toxic metabolites terminology screening. Ultra-high-pressure liquid chromatography-tandem mass spectrometry on a Sciextriplequad5500 mass spectrometer was used to detect target analytes quantitatively. Liquid chromatographic separations were performed with a Kinetex C18 column (2.1*50 mm,2.6 μm) from Phenomenex (Torrance, California, United States).Data were processed using the Xcalibur software (version2.0.7) from ThermoFisher.

[2] = biological target: cholinesterase; settings: ref Kovarova et al., 2013, cited from earlier work; for IC50: read-out: cholinesterase inhibition IC50; for times more toxic than phorate: relative to phorate, from IC50
[3] = test system: AChE; parameters: method as in Moyer et al., 2018b; settings: within 48 h; ref Moyer et al., 2018b; cited from earlier work
[4] = 24 h after ingestion; cited from earlier work
[5] = liposolubility; cited from earlier work
[6] = biological target: T1, cholinesterase (Homo sapiens, UniProt P06276); test: Serum cholinesterase level of the patient during phorate poisoning; format: in vivo; settings: for serum cholinesterase activity: patient
T1 construct: from tissue; host or cells: serum of the patient
Procedure: Cholinesterase levels were measured using petrochemistry products, Ortho Medical Equipment Trade (China) Co., Ltd. slides, and the Medical Device of the PRC Registration Certificate NO.: 20212402803. Dry tablets (rate method) and compound calibrator for cholinesterase were determined by cholinesterase on a vitros5600 automatic biochemical immunoanalyzer (VITROS Chemistry Products, Calibrator kit 6). The reportable range of measurement was 200–12,500 U/L.

[7] = patient, day 1, before HP, about 4 h after ingestion of 60% phorate emulsion

T1 sequence (P06276 29-602): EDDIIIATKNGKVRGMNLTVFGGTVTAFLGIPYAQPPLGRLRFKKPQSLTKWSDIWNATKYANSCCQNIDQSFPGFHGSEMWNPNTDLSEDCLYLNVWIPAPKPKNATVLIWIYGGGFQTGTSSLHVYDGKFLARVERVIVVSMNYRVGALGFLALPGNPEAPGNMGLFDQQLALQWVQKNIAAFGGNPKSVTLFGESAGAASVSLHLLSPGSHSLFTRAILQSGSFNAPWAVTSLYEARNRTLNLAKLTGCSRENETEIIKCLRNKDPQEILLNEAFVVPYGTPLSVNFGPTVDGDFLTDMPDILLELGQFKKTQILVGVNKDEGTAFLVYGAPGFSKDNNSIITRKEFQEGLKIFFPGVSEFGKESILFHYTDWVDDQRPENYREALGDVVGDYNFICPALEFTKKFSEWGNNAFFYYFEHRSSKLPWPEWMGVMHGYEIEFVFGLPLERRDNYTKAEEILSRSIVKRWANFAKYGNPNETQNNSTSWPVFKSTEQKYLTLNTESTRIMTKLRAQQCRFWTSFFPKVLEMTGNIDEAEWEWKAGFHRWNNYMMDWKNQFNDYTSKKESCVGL

| SMILES | IC50 [2] | times more toxic than phorate [2] | concentration at 1 day ([1]; patient, day 1, after HP) | concentration at 4 h [1, 7] | concentration at 3 day ([1]; patient, day 3) | concentration at 5 day ([1]; patient, day 5) | concentration at 7 day ([1]; patient, day 7 (HP suspended)) | concentration at 10 day ([1]; patient, day 10 (HP suspended)) | concentration at 12 day ([1]; patient, day 12) | concentration at 14 day ([1]; patient, day 14) | concentration at 16 day ([1]; patient, day 16) | concentration at 18 day ([1]; patient, day 18) | change of serum level while HP was stopped [1] | further results |
| --- | --- | --- | --- | --- | --- | --- | --- | --- | --- | --- | --- | --- | --- | --- |
| C[n+]1ccccc1/C=N/O [PAM, pralidoxime chloride, reference compound] | – | – | – | – | – | – | – | – | – | – | – | – | – | concentration of PAM ([1]; sixth day, after 0.5 g per hour for 5 days): significantly increased |
| CCOP(=S)(OCC)SCS(=O)(=O)CC [phorate sulfone] | 40 µM | about 80 times | 1310 ng/mL | 1920 ng/mL | 191 ng/mL | 68.9 ng/mL | 30.7 ng/mL | 31 ng/mL | 14.8 ng/mL | 18.2 ng/mL | 10.8 ng/mL | 2.71 ng/mL | slight rise | – |
| CCOP(=S)(OCC)SC[S+]([O-])CC (stereo not shown) [phorate sulfoxide] | 1500 µM | – | 1020 ng/mL | 1440 ng/mL | 21.2 ng/mL | 10.9 ng/mL | 35.2 ng/mL | 80.2 ng/mL | 18.1 ng/mL | 17.6 ng/mL | 1.67 ng/mL | 0 ng/mL | significant rise | – |
| CCOP(=S)(OCC)SCSCC [phorate, phosphorodithioic acid O, O-diethyl S-[(ethylthio)methyl] ester] | 3100 µM | – | – | – | – | – | – | – | – | – | – | – | – | aging of AChE inhibited by phorate [3]: no significant aging; unmetabolized phorate in blood [4]: no longer detectable; logP [5]: 3.71; cholinesterase levels ([6]; 23rd day): 1,634 U/L; cholinesterase levels ([6]; 27th day): 3592 U/L; cholinesterase levels ([6]; 34th day): 4,821 U/L; serum cholinesterase, share of the normal value ([6]; after 30 days): about 50%; serum cholinesterase activity ([6]; day 1): 268 u/L; serum cholinesterase activity ([6]; day 3): 200 u/L; serum cholinesterase activity ([6]; day 7): 200 u/L; serum cholinesterase activity ([6]; day 14): 233 u/L; serum cholinesterase activity ([6]; day 28): 3621 u/L; serum cholinesterase ([6]; upon transfer into ICU, after first blood perfusion): 268 U/L; phorate in blood ([1]; after the first HP treatment and subsequent daily HP treatments): not detected; unmetabolized phorate in first blood analysis ([1]; before HP, about 4 h after ingestion): did not detect; levels in the serum ([1]; patient, 34th day): < 10 ng/mL |
| CCOP(=O)(OCC)SCS(=O)(=O)CC [phoratoxon sulfone] | 0.5 µM | 1000 times | 2110 ng/mL | 3240 ng/mL | 221 ng/mL | 114 ng/mL | 65.2 ng/mL | 44.9 ng/mL | 33.3 ng/mL | 29.4 ng/mL | 20.9 ng/mL | 20.3 ng/mL | gradually fell | – |
| CCOP(=O)(OCC)SC[S+]([O-])CC (stereo not shown) [phoratoxon sulfoxide] | 0.9 µM | 1000 times | – | – | – | – | – | – | – | – | – | – | gradually fell | serum concentration ([1]; patient, day 1, after HP): 2180 ng/mL; serum concentration [1, 7]: 4170 ng/mL; serum concentration ([1]; patient, day 3): 696 ng/mL; serum concentration ([1]; patient, day 5): 304 ng/mL; serum concentration ([1]; patient, day 7 (HP suspended)): 219 ng/mL; serum concentration ([1]; patient, day 10 (HP suspended)): 177 ng/mL; serum concentration ([1]; patient, day 12): 96.2 ng/mL; serum concentration ([1]; patient, day 14): 72.3 ng/mL; serum concentration ([1]; patient, day 16): 14.5 ng/mL; serum concentration ([1]; patient, day 18): 0.743 ng/mL |
| CCOP(=O)(OCC)SCSCC [phoratoxon] | 3 µM | 1000 times | – | – | – | – | – | – | – | – | – | – | gradually fell | serum concentration ([1]; patient, day 1, after HP): 161 ng/mL; serum concentration [1, 7]: 195 ng/mL; serum concentration ([1]; patient, day 3): 27.7 ng/mL; serum concentration ([1]; patient, day 5): 3.33 ng/mL; serum concentration ([1]; patient, day 7 (HP suspended)): 2.10 ng/mL; serum concentration ([1]; patient, day 10 (HP suspended)): 1.01 ng/mL; serum concentration ([1]; patient, day 12): 0.433 ng/mL; serum concentration ([1]; patient, day 14): 0.415 ng/mL; serum concentration ([1]; patient, day 16): 0 ng/mL; serum concentration ([1]; patient, day 18): 0 ng/mL |
